Experimental data taken from BindingDB's records for doi:10.1016/S0960-894X(97)00219-9 (1997).

Target: T1, Cysteinyl leukotriene receptor 1 (Cavia porcellus, UniProt Q2NNR5)
T1 sequence (Q2NNR5 whole entry): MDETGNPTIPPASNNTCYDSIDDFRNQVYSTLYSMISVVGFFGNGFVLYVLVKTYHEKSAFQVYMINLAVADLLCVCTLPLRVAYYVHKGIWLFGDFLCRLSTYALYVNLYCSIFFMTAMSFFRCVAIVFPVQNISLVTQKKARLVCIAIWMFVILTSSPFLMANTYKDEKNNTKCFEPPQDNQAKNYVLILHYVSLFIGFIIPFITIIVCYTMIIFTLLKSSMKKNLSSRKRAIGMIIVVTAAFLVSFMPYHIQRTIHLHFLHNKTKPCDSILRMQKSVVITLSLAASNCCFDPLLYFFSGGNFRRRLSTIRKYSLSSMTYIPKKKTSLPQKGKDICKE
Assay: ChEBML_52039
Experimental: Dissociation constant for CysLT1 receptor was determined by the displacement of [3H]LTD4 from guinea pig lung membranes

COc1cc(C(=O)NS(=O)(=O)c2ccccc2)ccc1Cn1ncc2ccc(NC(=O)OC3CCCC3)cc21
Kd: 30.1 µM
